Consider 47 compounds from patent publication US10239835B2, “N-alkylaryl-5-oxyaryl-octahydro-cyclopenta[c]pyrrole negative allosteric modulators of NR2B” (Luc Therapeutics, Inc., priority 2014, dated 2019).

In assay [1] the target is HEK293 cells expressing NR1/NR2B (Homo sapiens (Human), UniProt Q05586+Q13224). Description: NR2B NAM Assay (FDSS Ca2+ influx cell assay). It is filed as cell-based. The settings on record: NR2B NAM assay, class of inhibitory concentration; read-out: Activity Category. On the procedure:
(§1) Cell Culture and plating: HEK293 cells expressing NR1/NR2B (Chantest, Cleveland, Ohio) were grown to 70-80% confluency as an adherent monolayer in standard tissue culture flasks at 37° C., 5% CO2 per supplier's instructions. NR2B expression was induced by incubation with 0.3-0.4 μg/ml tetracycline in the presence of 4 mM ARL-15896 for 18-24 hours under the same growth conditions, then transferred to 30° C. for another 3-5 hours.
(§2) After induction, cell culture medium was removed and cells were rinsed once with Ca^2+ and Mg^2+-free Dulbecco's phosphate buffered saline. Cells were then removed from the flask using TrypLE™ Express (Life Technologies) according to the manufacturer's instructions and collected to 50 ml centrifuge tubes. Following two washes in Ca^2+/Mg^2+-free HBSS with 20 mM HEPES (HHnoCa), cells were counted and viability assessed using trypan blue. To load cells with Ca^2+-sensitive dye, they were resuspended in fluo-8 plus Component B (AAT Bioquest Products) diluted in HHnoCa and incubated 15 minutes at 37° C., followed by 30 minutes at room temp (in dark). Cells were then washed and resuspended in HHnoCa to remove extracellular dye and plated in 384-well plates (Falcon, uncoated) at 20,000-30,000 cells/well in a final volume of 25 μl/well.
(§3) FDSS Assay: To each well of the plate, 10 μL test compound, control (MK801) or HHnoCa buffer was added at different concentrations to yield final concentrations of 0.001, 0.003, 0.010, 0.030, 0.100, 0.300, 1.000, 3.000, 10.000, or 30.000 uM final concentration of DMSO of 0.1%. Following 10 minutes pre-incubation in the dark, plates are loaded onto the Hamamatsu FDSS 6000. After collecting baseline fluorescence images, 3 μM glutamate, 3 μM glycine, and 1 mM Ca^2+ in HHnoCa buffer is added to each well, and Ca^2+ is recorded for 3 minutes. Data were processed by computing ratio of fluorescence at the end of data collection to baseline fluorescence to assess degree of Ca^2+ influx inhibition relative to that observed in MK801.
(§4) Table 8 below provides activity of each compound according to the legend that “++++” indicates inhibition at a concentration<100 nM; “+++” indicates inhibition at a concentration between 100 nM and 1 μM of the disclosed compound; “++” indicates inhibition at a concentration of from 1 μM to 10 μM; and “+” indicates inhibition at a concentration>10 μM.

Assay [2] has as its target HEK293 cells expressing NR1/NR2B (Homo sapiens (Human), UniProt Q13224). Description: NR2B NAM Assay (FDSS Ca2+ influx cell assay). It counts as cell-based. Particulars: Ca2+ influx inhibition relative to MK801; 3 μM glutamate, 3 μM glycine, 1 mM Ca2+; read-out: NR2B NAM IC50. How it is done: as §1, §2, §3, §4

Chain of HEK293 cells expressing NR1/NR2B (Homo sapiens (Human), UniProt Q05586+Q13224) (Q13224 27-1484, other chains not shown): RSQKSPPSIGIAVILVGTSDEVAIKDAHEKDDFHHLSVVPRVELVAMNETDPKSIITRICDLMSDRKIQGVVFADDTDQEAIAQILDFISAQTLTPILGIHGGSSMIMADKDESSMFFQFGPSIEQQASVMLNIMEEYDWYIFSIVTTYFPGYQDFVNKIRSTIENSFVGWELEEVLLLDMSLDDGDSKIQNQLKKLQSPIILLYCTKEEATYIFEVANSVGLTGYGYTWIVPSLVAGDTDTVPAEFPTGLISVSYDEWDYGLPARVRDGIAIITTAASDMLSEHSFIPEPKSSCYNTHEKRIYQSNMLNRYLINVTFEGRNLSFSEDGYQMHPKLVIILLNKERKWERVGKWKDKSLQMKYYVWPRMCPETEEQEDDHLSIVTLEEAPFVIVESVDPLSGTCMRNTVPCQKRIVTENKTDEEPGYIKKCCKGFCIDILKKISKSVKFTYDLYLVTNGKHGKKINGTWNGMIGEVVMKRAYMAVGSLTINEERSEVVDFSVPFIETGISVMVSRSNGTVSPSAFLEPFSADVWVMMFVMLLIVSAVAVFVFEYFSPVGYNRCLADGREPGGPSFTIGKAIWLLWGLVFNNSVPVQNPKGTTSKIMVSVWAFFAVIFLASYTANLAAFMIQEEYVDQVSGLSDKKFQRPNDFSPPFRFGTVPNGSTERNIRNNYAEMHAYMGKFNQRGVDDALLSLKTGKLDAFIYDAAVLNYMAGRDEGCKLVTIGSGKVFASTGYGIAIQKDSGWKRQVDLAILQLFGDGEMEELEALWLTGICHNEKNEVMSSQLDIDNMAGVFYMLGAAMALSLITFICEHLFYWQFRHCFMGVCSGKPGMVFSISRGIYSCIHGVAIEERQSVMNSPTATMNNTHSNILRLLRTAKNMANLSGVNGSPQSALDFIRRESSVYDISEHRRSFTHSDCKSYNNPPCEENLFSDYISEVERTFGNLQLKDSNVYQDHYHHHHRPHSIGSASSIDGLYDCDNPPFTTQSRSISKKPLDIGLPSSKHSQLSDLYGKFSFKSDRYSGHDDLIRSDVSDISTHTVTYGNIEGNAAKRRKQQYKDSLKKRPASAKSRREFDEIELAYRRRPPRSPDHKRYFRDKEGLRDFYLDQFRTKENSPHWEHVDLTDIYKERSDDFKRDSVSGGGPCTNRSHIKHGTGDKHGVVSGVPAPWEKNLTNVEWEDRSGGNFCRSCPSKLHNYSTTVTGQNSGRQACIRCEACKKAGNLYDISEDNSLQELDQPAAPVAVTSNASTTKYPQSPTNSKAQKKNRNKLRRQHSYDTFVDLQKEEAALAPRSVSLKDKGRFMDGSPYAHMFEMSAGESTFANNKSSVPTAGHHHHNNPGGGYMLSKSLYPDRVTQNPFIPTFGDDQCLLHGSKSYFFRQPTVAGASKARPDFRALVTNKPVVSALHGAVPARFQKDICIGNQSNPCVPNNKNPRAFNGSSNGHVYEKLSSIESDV
Chain of HEK293 cells expressing NR1/NR2B (Homo sapiens (Human), UniProt Q13224) (Q13224 27-1484, other chains not shown): as above

Consider `O=C(CN1C[C@H]2C[C@H](Oc3ccc(F)cc3)C[C@H]2C1)c1ccc(O)cc1`, for which the IC50 in assay [1] is under 100 nM; in assay [2] it was 47 nM.
With `Oc1ccc(C(O)CN2C[C@H]3C[C@H](Oc4ccc(F)cc4)C[C@H]3C2)cc1` (stereo partly shown), the IC50 was under 100 nM in assay [1] and 13 nM in assay [2].
As to `O=C(CN1C[C@H]2C[C@H](Oc3cncc(Cl)c3)C[C@H]2C1)c1ccc(O)cc1`, the IC50 in assay [1] was 100 to 1000 nM; in assay [2], 253 nM.
The like results for `Oc1ccc(C(O)CN2C[C@H]3C[C@H](Oc4cncc(Cl)c4)C[C@H]3C2)cc1` (stereo partly shown) were, in that order, 100 to 1000 nM and 493 nM.
For `O=C(CN1C[C@H]2C[C@H](Oc3ccc(F)cc3)C[C@H]2C1)c1cnn(Cc2ccccc2)c1`, the IC50 is over 10000 nM in assay [1] and 10000 nM in assay [2].
For `OC(CN1C[C@H]2C[C@H](Oc3ccc(F)cc3)C[C@H]2C1)c1cnn(Cc2ccccc2)c1` (stereo partly shown) the same measures were over 10000 nM and 10000 nM.
The like results for `O=C(CN1C[C@H]2C[C@@H](Oc3ccc(F)cc3)C[C@H]2C1)c1ccc(O)cc1` were, in that order, under 100 nM and 53.4 nM.
Take `Oc1ccc(C(O)CN2C[C@H]3C[C@H](Oc4cccnc4)C[C@H]3C2)cc1` (stereo partly shown): the IC50 is under 100 nM in assay [1] and 94.6 nM in assay [2].
The like results for `O=C(CN1C[C@H]2C[C@H](Oc3ccc(F)cc3)C[C@H]2C1)c1ccc(O)c(F)n1` were, in that order, over 10000 nM and 10000 nM.
The like results for `Cc1ccc(O[C@H]2C[C@@H]3CN(CC(=O)c4ccc(O)cc4)C[C@@H]3C2)cn1` were, in that order, under 100 nM and 84.5 nM.
`N#Cc1ccc(O[C@H]2C[C@@H]3CN(CC(=O)c4ccc(O)cn4)C[C@@H]3C2)cc1`: the IC50 in assay [1] was over 10000 nM; in assay [2] it was 10000 nM.
For `N#Cc1ccc(O[C@H]2C[C@@H]3CN(CC(O)c4ccc(O)cn4)C[C@@H]3C2)cc1` (stereo partly shown) the same measures were under 100 nM and 18 nM.
Turning to `N#Cc1ccc(O[C@H]2C[C@@H]3CN(CC(O)c4ccc(O)c(F)n4)C[C@@H]3C2)cc1` (stereo partly shown), the IC50 in assay [1] is 100 to 1000 nM; in assay [2] it was 367 nM.
For `O=C(CN1C[C@H]2C[C@H](Oc3cccnc3)C[C@H]2C1)c1ccc(O)c(F)c1` the same measures were 100 to 1000 nM and 434 nM.
For `COc1ccc(O[C@H]2C[C@@H]3CN(CC(=O)c4ccc(O)cn4)C[C@@H]3C2)cc1` the same measures were over 10000 nM and 10000 nM.
The like results for `COc1ccc(O[C@H]2C[C@@H]3CN(CC(=O)c4ccc(O)cc4)C[C@@H]3C2)cc1` were, in that order, under 100 nM and 46.4 nM.
For the compound `COc1ccc(O[C@H]2C[C@@H]3CN(CC(=O)c4ccc(O)c(F)c4)C[C@@H]3C2)cc1`, the IC50 in assay [1] was 100 to 1000 nM; in assay [2], 102 nM.
The like results for `N#Cc1ccc(O[C@H]2C[C@@H]3CN(CC(=O)c4ccc(O)c(F)n4)C[C@@H]3C2)cc1` were, in that order, over 10000 nM and 10000 nM.
For `N#Cc1ccc(O[C@H]2C[C@@H]3CN(CC(=O)c4ccc(O)cc4)C[C@@H]3C2)cc1` the same measures were under 100 nM and 68.2 nM.
Consider `N#Cc1ccc(O[C@H]2C[C@@H]3CN(CC(O)c4ccc(O)cc4)C[C@@H]3C2)cc1` (stereo partly shown), for which the IC50 in assay [1] is under 100 nM; in assay [2], 47.4 nM.
The like results for `Oc1ccc(C(O)CN2C[C@H]3C[C@H](Oc4cncc(F)c4)C[C@H]3C2)cc1` (stereo partly shown) were, in that order, 100 to 1000 nM and 267 nM.
The like results for `Oc1ccc(C(O)CN2C[C@H]3C[C@H](Oc4cccnc4)C[C@H]3C2)cc1F` (stereo partly shown) were, in that order, under 100 nM and 52.1 nM.
For `COc1cccc(O[C@H]2C[C@@H]3CN(CC(=O)c4ccc(O)cn4)C[C@@H]3C2)c1` the same measures were over 10000 nM and 10000 nM.
As to `Cc1ccc(O[C@H]2C[C@@H]3CN(CC(O)c4ccc(O)cc4)C[C@@H]3C2)cn1` (stereo partly shown), the IC50 in assay [1] is 100 to 1000 nM; in assay [2], 140 nM.
For `COc1ccc(O[C@H]2C[C@@H]3CN(CC(=O)c4ccc(O)c(OC)n4)C[C@@H]3C2)cc1` the same measures were over 10000 nM and 10000 nM.
The like results for `COc1ccc(O[C@H]2C[C@@H]3CN(CC(O)c4ccc(O)c(OC)n4)C[C@@H]3C2)cc1` (stereo partly shown) were, in that order, 1000 to 10000 nM and 1330 nM.
The like results for `COc1ccc(O[C@H]2C[C@@H]3CN(CC(O)c4ccc(O)cn4)C[C@@H]3C2)cc1` (stereo partly shown) were, in that order, under 100 nM and 65.8 nM.
On to `COc1ccc(O[C@H]2C[C@@H]3CN(CC(O)c4ccc(O)c(F)c4)C[C@@H]3C2)cc1` (stereo partly shown), for which the IC50 in assay [1] is under 100 nM; in assay [2], 41.5 nM.
The like results for `COc1ccc(O[C@H]2C[C@@H]3CN(CC(O)c4ccc(O)cc4)C[C@@H]3C2)cc1` (stereo partly shown) were, in that order, under 100 nM and 51.6 nM.
For `COc1cccc(O[C@H]2C[C@@H]3CN(CC(O)c4ccc(O)cn4)C[C@@H]3C2)c1` (stereo partly shown) the same measures were under 100 nM and 70.7 nM.
The like results for `Oc1ccc(C(O)CN2C[C@H]3C[C@H](Oc4ccc(F)cc4)C[C@H]3C2)nc1F` (stereo partly shown) were, in that order, under 100 nM and 30.2 nM.
For the compound `O=C(CN1C[C@H]2C[C@@H](Oc3cc(F)cc(F)c3)C[C@H]2C1)c1ccc(O)cn1`, the IC50 in assay [1] was over 10000 nM; in assay [2], 10000 nM.
For `Oc1ccc(C(O)CN2C[C@H]3C[C@@H](Oc4cc(F)cc(F)c4)C[C@H]3C2)nc1` (stereo partly shown) the same measures were 1000 to 10000 nM and 2920 nM.
For `COc1ccc(O[C@@H]2C[C@@H]3CN(CC(=O)c4ccc(O)cc4)C[C@@H]3C2)cc1` the same measures were under 100 nM and 57.3 nM.
The like results for `COc1ccc(O[C@@H]2C[C@@H]3CN(CC(=O)c4ccc(O)c(F)c4)C[C@@H]3C2)cc1` were, in that order, 100 to 1000 nM and 250 nM.
On to `O=C(CN1C[C@H]2CC(S(=O)(=O)c3ccccc3)C[C@H]2C1)c1ccc(O)cc1` (stereo partly shown), for which the IC50 in assay [1] is 1000 to 10000 nM; in assay [2] it was 3500 nM.
For `O=S(=O)(c1ccccc1)[C@H]1C[C@@H]2CN(CC(O)c3ccc(O)cc3)C[C@@H]2C1` (stereo partly shown) the same measures were 1000 to 10000 nM and 4370 nM.
For `O=C(CN1C[C@H]2C[C@H](S(=O)(=O)c3ccccc3)C[C@H]2C1)c1ccc(O)c(F)c1`, the IC50 was over 10000 nM in assay [1] and 10000 nM in assay [2].
For `O=S(=O)(c1ccccc1)[C@H]1C[C@@H]2CN(CC(O)c3ccc(O)c(F)c3)C[C@@H]2C1` (stereo partly shown) the same measures were over 10000 nM and 10000 nM.
For the compound `COc1ccc(S[C@H]2C[C@@H]3CN(CC(=O)c4ccc(O)cc4)C[C@@H]3C2)cc1`, the IC50 in assay [1] was 100 to 1000 nM; in assay [2], 230 nM.
The like results for `O=C(CN1C[C@H]2C[C@H](Sc3ccc(F)cc3)C[C@H]2C1)c1ccc(O)cc1` were, in that order, under 100 nM and 74 nM.
The like results for `Oc1ccc(C(O)CN2C[C@H]3C[C@H](Sc4ccc(F)cc4)C[C@H]3C2)cc1` (stereo partly shown) were, in that order, under 100 nM and 19.2 nM.
With `COc1ccc(S[C@H]2C[C@@H]3CN(CC(O)c4ccc(O)cc4)C[C@@H]3C2)cc1` (stereo partly shown), the IC50 was 100 to 1000 nM in assay [1] and 113 nM in assay [2].
The like results for `Oc1ccc(C(O)CN2C[C@H]3C[C@H](Sc4ccccc4F)C[C@H]3C2)nc1` (stereo partly shown) were, in that order, under 100 nM and 20.6 nM.
For `Oc1ccc([C@@H](O)CN2C[C@H]3C[C@H](Oc4ccccc4)C[C@H]3C2)nc1` the same measures were under 100 nM and 5.25 nM.
In the case of `Oc1ccc([C@H](O)CN2C[C@H]3C[C@H](Oc4ccccc4)C[C@H]3C2)nc1`, the IC50 is under 100 nM in assay [1] and 5.24 nM in assay [2].
`Oc1ccc([C@@H](O)CN2C[C@H]3C[C@H](Oc4cccnc4F)C[C@H]3C2)nc1`: the IC50 in assay [1] is under 100 nM; in assay [2], 20 nM.
